Source: patent publication US12233071B2, “Medicament for treating cough” (NIPPON CHEMIPHAR CO., LTD, priority 2018, dated 2025)
“Also recorded” adds a separate entry of the source.

What was measured:
[1] = test system: citric acid (0.5 M)-induced cough; assay: Citric acid-induced cough reflux in pretreatment guinea pigs, oral administration; assay type: in vivo, Hartly strain guinea pigs; conditions: guinea pigs; for inhibition of citric acid-induced cough (number of coughs): oral (compound A 1, 3, 10 mg/kg; compound B 1, 3, 10, 30 mg/kg); for inhibition of citric acid-induced cough (number of coughs) / dose at which a significant inhibitory action on citric acid-induced cough was exhibited: 0.5 M citric acid 1 h after administration; for dose at which a significant inhibitory action on citric acid-induced cough was exhibited: oral
Source text: (§1) Cough reflux is induced by inhalation of (in the case of mice, 0.1 M or 0.25 M and in the case of guinea pigs, 0.25 M or 0.5 M) citric acid by mice or guinea pigs under non-anesthesia conditions. The citric acid is made aerosol by using an ultrasonic nebulizer (NE-U17: OMRON Corporation), and is inhaled while the air is supplied with an artificial respirator (SN-480-7: Shinano Seisakusho). The citric acid aerosol has an average particle size of from 1 to 8 μm, and the artificial respirator is used to supply the air at a one-time ventilation volume of 6 mL, a frequency of 30 times per min, and an inhalation period of 3 min.
The respiration and the cough reflux are measured in accordance with the body-plethysmograph method. The plethysmograph used includes: a plastic-made, cylindrical cylinder part in which the trunk of each mouse or guinea pig is housed; and a cap part that covers the head portion (any plastic-made cylinder is allowed as long as each experimental animal can be put in; in the case of the mouse, for instance, the part with a diameter of 4 cm and a length of 7 cm was used). An exhaust hole is created at an upper cylinder portion so as to be able to connect, via a silicon tube, to a respiratory flow meter (TP-602T: NIHON KOHDEN CORPORATION). To tightly seal the inside of the cylinder, a rubber or celluloid collar is attached to the neck of each animal, and the cap covering the whole head is used to fix them. The head-attached cap part has an exhaust port and an inhalation port created for inhalation of a cough-inducing substance. In addition, a screw-type lid is attached to a tail portion of the cylinder so as to move in or out each experimental animal. Each mouse is put in the cylinder, allowed to play for at least 30 min, adapted to an experimental environment, and then subjected to the experiment. The respiration is recorded in a PC (IdeaPad 300: Lenovo) for measurement by measuring, as a change in volume of the cylinder, the chest movement of each experimental animal in the cylinder by using a PowerLab (ML826 PowerLab 2/26: AD Instruments) via a respiratory flow meter. When a cough is induced, the chest of the experimental animal is moved vigorously, which causes an instantaneous large volume change in the cylinder. This change is recorded using the respiratory flow meter. This frequency is recorded to measure the number of coughs. The data is analyzed by LabChart version 8 (ADInstruments). In addition, immediately before inhalation of citric acid, the respiratory frequency per 15 sec is measured.
In this way, the effects were investigated.
At that time, Hartly strain guinea pigs were used as the guinea pigs, and 0.5 M citric acid was used as the citric acid.
In this way, the effects were investigated. Here, 0.5 M citric acid was used as the pretreated citric acid.

[2] = test system: ACh-induced contraction of bronchial smooth muscle; assay: Contraction of tracheobronchial smooth muscles excised from guinea pig (isometric tension, organ bath)
Description: An animal was sacrificed by phlebotomy while the ventral aorta was dissected under urethane (2 g/kg, i.p.) anesthesia. Then, a left major bronchial tissue was excised. After a connective tissue and blood vessels were removed, each ring specimen with a width of about 3 mm was prepared and suspended in an organ bath. Then, the isometric tension was measured while the resting tension was set to 1.0 g. After the baseline tension was stabilized, whether each ring specimen was subject to an acetylcholine (ACh: 10^−3 M)-mediated contraction reaction was verified. Then, the following mater was investigated. […] Next, a tracheal or left major bronchial tissue was excised. After a connective tissue and blood vessels were removed, each ring specimen with a width of about 3 mm was prepared and suspended in an organ bath. Then, the isometric tension was measured while the resting tension was set to 1.0 g. After the baseline tension was stabilized, whether each ring specimen was subject to an acetylcholine (ACh: 10^−3 M)-mediated contraction reaction was verified. Then, the following mater was investigated. […] The specimen was likewise treated with just 0.1% DMSO.

[3] = test system: citric acid (0.25 M)-induced cough; assay: Citric acid-induced cough in OVA-sensitized cough model guinea pigs, oral administration; assay type: in vivo, Hartly strain guinea pigs; conditions: oral 1 mg/kg 1 h before citric acid stimulation; for cough response increased due to airway inflammation: OVA-sensitized cough group guinea pigs
Source text: When OVA, a foreign antigen, is inhaled, airway inflammation accompanied by eosinophil infiltration is induced. Consequently, OVA-sensitized guinea pigs present symptoms of allergic cough and atopic cough. Thus, the guinea pigs have been widely used as a pathological model (antigen-induced airway inflammation model animals) reflecting human clinical conditions. Here, in the Examples of the present application, whether a compound(s) of the present application elicited cough inhibitory action against the pathological model was evaluated.
The OVA-sensitized cough model guinea pigs were produced specifically by the following procedure.
Note that in the following procedure, Ovalbumin or mepyramine maleate is dissolved in saline and then used.
The number of citric acid-induced coughs is measured. Then, a mixture of 200 μL of 0.05% OVA (Ovalbumin) and 100 μL of Imject Alum (prepared by suspending aluminum hydroxide and magnesium hydroxide, each at a concentration of 40 mg/mL, in water and by adding an inactivating stabilizer thereto) per guinea pig is administered intraperitoneally (i.p.).
After the intraperitoneal administration, 0.5% OVA is given for 5 min by inhalation at days 7, 14, 21, and 28.
Note that at 30 min before the inhalation, mepyramine maleate (10 mg/kg) is given i.p. to prevent a shock symptom.
At Day 35, 0.5% ovalbumin is given for 60 min by inhalation. Note that at 30 min before the inhalation, mepyramine maleate (10 mg/kg) is given i.p. to prevent a shock symptom.
The next day of the final 0.5% ovalbumin challenge (day 35), the test is conducted.
(§2) OVA-sensitized cough model guinea pigs were used and stimulated with 0.25 M citric acid by the same procedure as of Example 9 to induce cough reflux. For guinea pigs used in this Example, Hartly strain guinea pigs were used for any of the below-described pretreatment guinea pigs, sham group guinea pigs, and OVA-sensitized cough group guinea pigs.
as §2, with “10” for “9”

[4] = test system: citric acid (0.25 M)-induced cough; assay: Citric acid-induced cough reflux in pretreatment mice, oral administration; assay type: in vivo, ICR strain mice
[5] = test system: citric acid (0.25 M)-induced cough; assay: Citric acid-induced cough in mice, local application by inhalation using a nebulizer; assay type: in vivo, ICR strain mice; conditions: inhalation of 10, 30 or 100 μg/mL by nebulizer, 0.25 M citric acid after 4 min
Source text: as §1
(§3) The respiration and the cough reflux are measured in accordance with the body-plethysmograph method. […] The respiration is recorded in a PC (IdeaPad 300: Lenovo) for measurement by measuring, as a change in volume of the cylinder, the chest movement of each experimental animal in the cylinder by using a PowerLab (ML826 PowerLab 2/26: AD Instruments) via a respiratory flow meter. […] This change is recorded using the respiratory flow meter. This frequency is recorded to measure the number of coughs. The data is analyzed by LabChart version 8 (ADInstruments). In addition, immediately before inhalation of citric acid, the respiratory frequency per 15 sec is measured. […]

[6] = test system: citric acid (0.1 M)-induced cough; assay: Citric acid-induced cough in airway inflammation (LPS) model mice, oral administration; assay type: in vivo, ICR strain mice; conditions: oral 0.3 mg/kg 1 h before 0.1 M citric acid stimulation
Description: Model mice with chronic cough caused by airway inflammation (referred to as “airway inflammation model mice”) were produced.
The airway inflammation model mice were produced while the mice were nasally instilled with lipopolysaccaride (LPS:1 μg/100 μL) daily for 3 days under diethyl ether inhalation anesthesia.
In addition, experiments for evaluating medicament efficacy on the airway inflammation model mice were conducted at 24 h after the final LPS administration.
Cough reflux is induced by inhalation of (in the case of mice, 0.1 M or 0.25 M and in the case of guinea pigs, 0.25 M or 0.5 M) citric acid by mice or guinea pigs under non-anesthesia conditions. […]
as §3

| SMILES | medicament efficacy on citric acid-induced cough at 1 mg/kg ([1]; oral 1 mg/kg, investigation of Example 10 (FIG. 10)) | inhibition of citric acid-induced cough (number of coughs) [1] | dose at which a significant inhibitory action on citric acid-induced cough was exhibited [1] | effect on ACh-induced contraction of bronchial smooth muscle ([2]; 10^−6 M in DMSO at final 0.1%, 10^−5 M ACh) | cough response increased due to airway inflammation [3] | change in the number of coughs in sham group guinea pigs [3] | medicament efficacy on citric acid-induced cough at 0.3 mg/kg ([4]; oral 0.3 mg/kg, examination of Example 3) | cough inhibition rate, compound A versus the same dose of dihydrocodeine ([4]; oral 10 mg/kg, 0.25 M citric acid 1 h after administration) | inhibition of citric acid-induced cough (number of coughs) ([4]; oral 0.3, 1, 3 or 10 mg/kg, citric acid stimulation 1 h after administration) | dose at which a significant inhibitory action on citric acid-induced cough was exhibited ([4]; oral, citric acid stimulation 1 h after administration) | effect on baseline tension of bronchial smooth muscle ([2]; 10^−5 M, solvent water) | effect on 10^−5 M Ach-induced contraction reaction of bronchial smooth muscle ([2]; 10^−5 M, solvent water, about 50% contraction of the maximum contraction) | antitussive effect by local application [5] | cough response increased due to airway inflammation ([6]; airway inflammation group mice) | change in the number of coughs in sham group mice ([6]; sham group mice (saline instead of LPS), sodium salt, 0.3 mg/kg) |
| --- | --- | --- | --- | --- | --- | --- | --- | --- | --- | --- | --- | --- | --- | --- | --- |
| O=C1CC(=O)N(c2ccc(NC(=O)c3ccccc3I)cc2)c2ccc3ccccc3c2N1 [compound B, 5-[4-(2-iodobenzoylamino)phenyl]-1H-naphtho[1,2-b][1,4]diazepin-2,4(3H,5H)-dione] | does not elicit any significant medicament efficacy | inhibited citric acid-induced cough in a dose-dependent manner | ≥ 1 mg/kg | Neither 0.1% DMSO itself, which was a solvent, nor compound B (at 10^−6 M) affected the ACh-induced contraction of bronchial smooth muscle | inhibited completely | a change in the number of coughs was unobserved | – | – | – | – | – | – | – | – | – |
| O=C1CC(=O)N(c2cccc(-c3nnn[nH]3)c2)c2ccc3ccccc3c2N1.[Na] [compound A, 5-[3-(1H-tetrazol-5-yl)phenyl]-1H-naphtho[1,2-b][1,4]diazepin-2,4(3H,5H)-dione sodium salt] | – | inhibited citric acid-induced cough in a dose-dependent manner | ≥ 1 mg/kg | – | inhibited completely | a change in the number of coughs was unobserved | did not elicit any significant medicament efficacy | comparable | inhibited citric acid-induced cough in a dose-dependent manner | ≥ 1 mg/kg | did not affect | did not affect | elicited an antitussive effect, in a dose-dependent manner, more strongly and more rapidly using a lower dose than the case of oral administration | inhibited completely | a change in the number of coughs was unobserved; also recorded: did not elicit any significant medicament efficacy |
